According to patent US20260325519A1, “METHOD AND PHARMACEUTICAL COMPOSITION FOR USE IN THE TREATMENT OF FOCAL CORTICAL DYSPLASIA” (priority 2023, published 2026):

Assays:
[1] = system: neocortical acute slices from rats with FCDII; assay: Spontaneous recurrent epileptiform discharges (LFP) in acute neocortical slices from adult FCD rats; type: cell-based, rat (Wistar); conditions: 5 μM gabazine
Procedure: Our study takes advantage of a rat model of FCD developed in our laboratory (Pelorosso et al 2019) by in utero electroporation of a gain of function mutation of mTOR (MTOR c.6644C>T p.S2215F), that has been found in different FCD patients (Baldassari et al 2019). Rats were housed in cages with ad libitum food/water, controlled temperature (21-23 °C) and 12:12 h light-dark cycle (light period from 8 A.M. to 8 P.M.).
Plasmid electroporations were performed with either wild type (WT) or mutant mTOR expression vectors (pCAG-MTOR WT-IRES-GFP or pCAG-MTOR p.S2215F, respectively, 3.0 μg/μL each), or with non-recombinant vector (pCAG-IRES-GFP; 0.5 μg/μL). All constructs were generated by Genscript (Piscataway, NJ) as described before (Pelorosso et al 2019) and were checked by Sanger sequencing.
Timed pregnant Wistar rats (Janvier Labs, Le Genest-Saint-Isle, France) received buprenorphine at 0.03 mg/kg and were anesthetized with sevoflurane (4%) 30 min later. […]
Prior to recordings, rat or human acute slices were transferred in oxygenated normal cerebrospinal fluid (ACSF) at room temperature (>1 hour). […] Spontaneous recurrent epileptiform discharges were recorded as local field potentials as previously described (Peret et al., 2014). […]

[2] = system: acute cortical slices from a patient with FCD; assay: Recurrent epileptiform discharges (LFP) in human acute slice from surgically resected FCD; type: cell-based; conditions: 5 μM UBP 310, 50 μM 4-AP and 5 μM gabazine
Procedure: Cortical slices from patients with drug-resistant epilepsy Acute and cultured slices at 350 μm thickness were prepared from surgical cortical resections from patient diagnosed with drug-resistant epilepsy (AP-HM, Hôpital de La Timone, Marseille, France; CHU Pellegrin, Bordeaux, France) as previously described (Le Duigou et al., 2018). At DIV 1, a subset of cultured slices were transduced with AAV9 with antigrik2 miRNA applied directly to slices (4E+10 per slice).
Prior to recordings, rat or human acute slices were transferred in oxygenated normal cerebrospinal fluid (ACSF) at room temperature (>1 hour). The ACSF contained (in mM, Sigma-Aldrich): 126 NaCl, 3.5 KCl, 1.2NaH2PO4, 26 NaHCO3, 1.3 MgCl2, 2.0 CaCl2 , and 10 glucose (pH 7.4). For electrophysiological recordings, cortical slices were individually transferred to a recording chamber maintained at 30-32 °C and continuously perfused (2-3 ml/min) with oxygenated (95% O2 and 5% CO2) ACSF containing either 5 μM gabazine, or 5 μM gabazine and 50 μM 4-AP in rats and human tissues, respectively. Spontaneous recurrent epileptiform discharges were recorded as local field potentials as previously described (Peret et al., 2014).
All statistical analyses were performed using Prism 6 (Graphpad). Normality of the data distributions was systematically tested using a Shapiro-Wilk test. […]

[3] = system: acute cortical slices from a patient with FCD; assay: Field EPSP (fEPSP) evoked by electrical stimulation in human acute slice from surgically resected FCD; type: cell-based; conditions: 5 μM UBP 310
[4] = acute cortical slices from a patient with FCD
[5] = human acute slice from resected FCD, in words

Structure (SMILES): Cc1cn(C[C@H](N)C(=O)O)c(=O)n(Cc2ccsc2C(=O)O)c1=O [UBP 310]
- reduction in the number of epileptiform discharges ([1]; 5 μM UBP 310, bath application, acute neocortical slice from adult FCD rat, n=7 slices from 4 FCD rats, Wilcoxon p=0.0156): around 46%
- reduction in the frequency of spontaneous recurrent epileptiform discharges ([1]; 5 μM UBP 310, neocortical acute slices from rats with FCDII): around 46%
- reduction of the frequency of spontaneous recurrent epileptiform discharges [2, 4]: around 70%
- reduction of the number of epileptiform discharges [2, 5]: strong reduction
- reduction of the amplitude of evoked field EPSP (fEPSP) [3, 4]: approximately 50%
- fEPSP evoked by electrical stimulation [3, 5]: strongly reduced
